Reference: PubChem BioAssay (NCI)
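How tested: cells in 96-well plates exposed to compound for 48 hours at five concentrations. Abbreviation: GI50, concentration required for 50% inhibition of growth. TGI denotes the concentration required for complete inhibition of growth.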

Assays:
Experiment in all cases: DTP human tumour cell line panel, 48 h
OVCAR-5 ovarian = system: OVCAR-5 ovarian
NCI/ADR-RES ovarian = system: NCI/ADR-RES ovarian
SF-268 CNS = system: SF-268 CNS
EKVX NSCLC = system: EKVX NSCLC
HT29 colon = system: HT29 colon
BT-549 breast = system: BT-549 breast
K-562 leukemia = system: K-562 leukemia
SR leukemia = system: SR leukemia
786-0 renal = system: 786-0 renal
MCF7 breast = system: MCF7 breast
T-47D breast = system: T-47D breast
NCI-H460 lung = system: NCI-H460 lung
RPMI-8226 leukemia = system: RPMI-8226 leukemia
A498 renal = system: A498 renal
NCI-H23 lung = system: NCI-H23 lung
SF-539 CNS = system: SF-539 CNS
HCC-2998 colon = system: HCC-2998 colon
SK-MEL-2 melanoma = system: SK-MEL-2 melanoma
IGROV1 ovarian = system: IGROV1 ovarian
TK-10 renal = system: TK-10 renal
HCT-15 colon = system: HCT-15 colon
NCI-H522 lung = system: NCI-H522 lung
DU-145 prostate = system: DU-145 prostate
UACC-62 melanoma = system: UACC-62 melanoma
ACHN renal = system: ACHN renal
A549 NSCLC = system: A549 NSCLC
RXF 393 renal = system: RXF 393 renal
COLO 205 colon = system: COLO 205 colon
HL-60(TB) leukemia = system: HL-60(TB) leukemia
HCT-116 colon = system: HCT-116 colon
KM12 colon = system: KM12 colon
UACC-257 melanoma = system: UACC-257 melanoma
MOLT-4 leukemia = system: MOLT-4 leukemia
OVCAR-4 ovarian = system: OVCAR-4 ovarian
HOP-62 NSCLC = system: HOP-62 NSCLC
M14 melanoma = system: M14 melanoma
SF-295 CNS = system: SF-295 CNS
LOX IMVI melanoma = system: LOX IMVI melanoma
SN12C renal = system: SN12C renal
CAKI-1 renal = system: CAKI-1 renal
CCRF-CEM leukemia = system: CCRF-CEM leukemia
SK-MEL-28 melanoma = system: SK-MEL-28 melanoma
HOP-92 NSCLC = system: HOP-92 NSCLC
SNB-75 CNS = system: SNB-75 CNS
U251 CNS = system: U251 CNS
SNB-19 CNS = system: SNB-19 CNS
OVCAR-8 ovarian = system: OVCAR-8 ovarian
SK-OV-3 ovarian = system: SK-OV-3 ovarian
MDA-MB-435 = system: MDA-MB-435
NCI-H226 lung = system: NCI-H226 lung
UO-31 renal = system: UO-31 renal
SK-MEL-5 melanoma = system: SK-MEL-5 melanoma
MDA-MB-231 breast = system: MDA-MB-231 breast
SW-620 colon = system: SW-620 colon
HS 578T breast = system: HS 578T breast
PC-3 prostate = system: PC-3 prostate
MALME-3M melanoma = system: MALME-3M melanoma

CCN(CC)CCCC(C)NCC(=O)NC(c1ccc2c(c1)OCO2)c1cc(Cl)c2cccnc2c1O (centres undefined)
GI50 (OVCAR-5 ovarian): 2.73 µM | TGI (OVCAR-5 ovarian): 15.5 µM | GI50 (NCI/ADR-RES ovarian): 3.31 µM | TGI (NCI/ADR-RES ovarian): 15.5 µM | GI50 (SF-268 CNS): 2.21 µM | TGI (SF-268 CNS): 10.6 µM | GI50 (EKVX NSCLC): 1.65 µM | TGI (EKVX NSCLC): 11 µM | GI50 (HT29 colon): 2.41 µM | TGI (HT29 colon): 10.4 µM | GI50 (BT-549 breast): 4.78 µM | TGI (BT-549 breast): 17.1 µM | GI50 (K-562 leukemia): 0.895 µM | TGI (K-562 leukemia): 9.33 µM | GI50 (SR leukemia): 0.897 µM | TGI (SR leukemia): 5.61 µM | GI50 (786-0 renal): 2.3 µM | TGI (786-0 renal): 5.75 µM | GI50 (MCF7 breast): 1.59 µM | TGI (MCF7 breast): 10.6 µM | GI50 (T-47D breast): 2.89 µM | TGI (T-47D breast): 9.19 µM | GI50 (NCI-H460 lung): 1.48 µM | TGI (NCI-H460 lung): 6.45 µM | GI50 (RPMI-8226 leukemia): 2.36 µM | TGI (RPMI-8226 leukemia): 7.77 µM | GI50 (A498 renal): 2.35 µM | TGI (A498 renal): 6.69 µM | GI50 (NCI-H23 lung): 2.99 µM | TGI (NCI-H23 lung): 11.2 µM | GI50 (SF-539 CNS): 1.85 µM | TGI (SF-539 CNS): 4.05 µM | GI50 (HCC-2998 colon): 1.73 µM | TGI (HCC-2998 colon): 4.13 µM | GI50 (SK-MEL-2 melanoma): 2.37 µM | TGI (SK-MEL-2 melanoma): 6.33 µM | GI50 (IGROV1 ovarian): 2.53 µM | TGI (IGROV1 ovarian): 10.8 µM | GI50 (TK-10 renal): 3.36 µM | TGI (TK-10 renal): 15.1 µM | GI50 (HCT-15 colon): 2.44 µM | TGI (HCT-15 colon): 11.9 µM | GI50 (NCI-H522 lung): 2.36 µM | TGI (NCI-H522 lung): 6.97 µM | GI50 (DU-145 prostate): 2.63 µM | TGI (DU-145 prostate): 15.7 µM | GI50 (UACC-62 melanoma): 1.83 µM | TGI (UACC-62 melanoma): 3.6 µM | GI50 (ACHN renal): 2.79 µM | TGI (ACHN renal): 10.1 µM | GI50 (A549 NSCLC): 2.83 µM | TGI (A549 NSCLC): 13.4 µM | GI50 (RXF 393 renal): 2.33 µM | TGI (RXF 393 renal): 10.3 µM | GI50 (COLO 205 colon): 2.36 µM | TGI (COLO 205 colon): 8.42 µM | GI50 (HL-60(TB) leukemia): 1.29 µM | TGI (HL-60(TB) leukemia): 4.41 µM | GI50 (HCT-116 colon): 1.41 µM | TGI (HCT-116 colon): 11.2 µM | GI50 (KM12 colon): 2.41 µM | TGI (KM12 colon): 9.78 µM | GI50 (UACC-257 melanoma): 1.92 µM | TGI (UACC-257 melanoma): 4.18 µM | GI50 (MOLT-4 leukemia): 0.626 µM | TGI (MOLT-4 leukemia): 11.2 µM | GI50 (OVCAR-4 ovarian): 1.39 µM | TGI (OVCAR-4 ovarian): 14.7 µM | GI50 (HOP-62 NSCLC): 1.56 µM | TGI (HOP-62 NSCLC): 6.88 µM | GI50 (M14 melanoma): 1.42 µM | TGI (M14 melanoma): 3.27 µM | GI50 (SF-295 CNS): 1.56 µM | TGI (SF-295 CNS): 3.41 µM | GI50 (LOX IMVI melanoma): 1.22 µM | TGI (LOX IMVI melanoma): 3.13 µM | GI50 (SN12C renal): 3.15 µM | TGI (SN12C renal): 13.7 µM | GI50 (CAKI-1 renal): 1.77 µM | TGI (CAKI-1 renal): 4.41 µM | GI50 (CCRF-CEM leukemia): 0.909 µM | TGI (CCRF-CEM leukemia): 12.2 µM | GI50 (SK-MEL-28 melanoma): 1.47 µM | TGI (SK-MEL-28 melanoma): 3.08 µM | GI50 (HOP-92 NSCLC): 1.62 µM | TGI (HOP-92 NSCLC): 8.17 µM | GI50 (SNB-75 CNS): 2.18 µM | TGI (SNB-75 CNS): 8.73 µM | GI50 (U251 CNS): 2.1 µM | TGI (U251 CNS): 13 µM | GI50 (SNB-19 CNS): 3.23 µM | TGI (SNB-19 CNS): 15.2 µM | GI50 (OVCAR-8 ovarian): 2.56 µM | TGI (OVCAR-8 ovarian): 13.1 µM | GI50 (SK-OV-3 ovarian): 2.93 µM | TGI (SK-OV-3 ovarian): 8.45 µM | GI50 (MDA-MB-435): 1.81 µM | TGI (MDA-MB-435): 3.87 µM | GI50 (NCI-H226 lung): 2.12 µM | TGI (NCI-H226 lung): 6.71 µM | GI50 (UO-31 renal): 2.02 µM | TGI (UO-31 renal): 7.16 µM | GI50 (SK-MEL-5 melanoma): 1.67 µM | TGI (SK-MEL-5 melanoma): 3.11 µM | GI50 (MDA-MB-231 breast): 1.35 µM | TGI (MDA-MB-231 breast): 11.9 µM | GI50 (SW-620 colon): 2.32 µM | TGI (SW-620 colon): 11.9 µM | GI50 (HS 578T breast): 4.37 µM | TGI (HS 578T breast): 22.6 µM | GI50 (PC-3 prostate): 2.03 µM | TGI (PC-3 prostate): 12 µM | GI50 (MALME-3M melanoma): 1.68 µM | TGI (MALME-3M melanoma): 3.29 µM
